Measurements from patent US11058117B2, “Benzoxaborole compounds” (BASF SE, priority 2017, dated 2021).
Where two headings read alike, the source gives them in different places.

Assays:
Abutilon theophrasti [1] = experiment: greenhouse post-emergence herbicidal test; format: in vivo; details: scale 0 to 100
Method: (§1) The culture containers used were plastic flowerpots containing loamy sand with approximately 3.0% of humus as the substrate. The seeds of the test plants were sown separately for each species.
(§2) For this purpose, the test plants were either sown directly and grown in the same containers, or they were first grown separately as seedlings and transplanted into the test containers a few days prior to treatment.
(§3) Depending on the species, the plants were kept at 10-25° C. or 20-35° C., respectively.
(§4) The test period extended over 2 to 4 weeks. During this time, the plants were tended, and their response to the individual treatments was evaluated.
(§5) Evaluation was carried out using a scale from 0 to 100. 100 means no emergence of the plants, or complete destruction of at least the aerial moieties, and 0 means no damage, or normal course of growth. A moderate herbicidal activity is given at values of at least 60, a good herbicidal activity is given at values of at least 70, and a very good herbicidal activity is given at values of at least 85.

Amaranthus retroflexus [2] = experiment: greenhouse post-emergence herbicidal test; format: in vivo; details: scale 0 to 100
Method: as §1, §2, §3, §4, §5

Setaria viridis = experiment: greenhouse post-emergence herbicidal test; format: in vivo; details: scale 0 to 100
Method: as §1, §2, §3, §4, §5

Polygonum convolvulus = details: post-emergence, application rate 0.25 kg/ha; scale 0 to 100
Method: as §1, §2, §3, §4, §5

Sesbania exaltata = details: post-emergence, application rate 0.25 kg/ha; scale 0 to 100
Method: as §1, §2, §3, §4, §5

Alopecurus myosuroides = details: post-emergence, scale 0 to 100
Method: as §1, §2, §3, §4, §5

Amaranthus retroflexus [3] = details: pre-emergence, application rate 2 kg/ha; scale 0 to 100
Description: as §1
(§6) The containers were irrigated gently to promote germination and growth and subsequently covered with transparent plastic hoods until the plants had rooted. This cover caused uniform germination of the test plants, unless this had been impaired by the active ingredients.
as §3, §4, §5

Setaria faberi = details: pre-emergence, application rate 2 kg/ha; scale 0 to 100
Description: as §1, §6, §3, §4, §5

Echinocloa crus-galli = details: post-emergence, application rate 2 kg/ha; scale 0 to 100
Method: as §1, §2, §3, §4, §5

Abutilon theophrasti [4] = details: pre-emergence, application rate 2 kg/ha; scale 0 to 100
Description: as §1, §6, §3, §4, §5

Avena fatua = experiment: greenhouse post-emergence herbicidal test; format: in vivo; details: application rate 2 kg/ha, scale 0 to 100
Method: as §1, §2, §3, §4, §5

COC(=O)C1CCc2ccc3c(c2C1)B(O)OC3 (stereo not drawn) [Compound 20]
herbicidal activity against Abutilon theophrasti (Abutilon theophrasti [1]; application rate 1 kg/ha): 100%
herbicidal activity against Amaranthus retroflexus (Amaranthus retroflexus [2]; application rate 1 kg/ha): 100%
herbicidal activity against Setaria viridis (Setaria viridis; application rate 1 kg/ha): 100%

O=C(O)C1Cc2c(F)cc3c(c2O1)B(O)OC3 (stereo not drawn) [Compound 13]
herbicidal activity against Amaranthus retroflexus (Amaranthus retroflexus [2]; application rate 0.25 kg/ha): 100%
herbicidal activity against Polygonum convolvulus (Polygonum convolvulus): 85%
herbicidal activity against Sesbania exaltata (Sesbania exaltata): 100%

COC(=O)C1Cc2c(C(F)(F)F)cc3c(c2C1)B(O)OC3 (stereo not drawn) [Compound 19]
herbicidal activity against Abutilon theophrasti (Abutilon theophrasti [1]; application rate 1 kg/ha): 100%
herbicidal activity against Amaranthus retroflexus (Amaranthus retroflexus [2]; application rate 1 kg/ha): 100%
herbicidal activity against Setaria viridis (Setaria viridis; application rate 1 kg/ha): 90%

O=C(O)C1CCc2ccc3c(c2C1)B(O)OC3 (stereo not drawn) [Compound 21]
herbicidal activity against Amaranthus retroflexus (Amaranthus retroflexus [2]; application rate 1 kg/ha): 100%
herbicidal activity against Setaria viridis (Setaria viridis; application rate 1 kg/ha): 80%
herbicidal activity against Alopecurus myosuroides (Alopecurus myosuroides; application rate 1 kg/ha): 80%

O=C(O)C1Cc2c(ccc3c2B(O)OC3)O1 (stereo not drawn) [Compound 18]
herbicidal activity against Amaranthus retroflexus (Amaranthus retroflexus [2]; application rate 1 kg/ha): 100%
herbicidal activity against Setaria viridis (Setaria viridis; application rate 1 kg/ha): 90%

O=C(O)C1Cc2ccc3c(c2O1)B(O)OC3 (stereo not drawn) [Compound 6]
herbicidal activity against Abutilon theophrasti (Abutilon theophrasti [1]; application rate 2 kg/ha): 100%
herbicidal activity against Amaranthus retroflexus (Amaranthus retroflexus [2]; application rate 2 kg/ha): 100%
herbicidal activity against Amaranthus retroflexus (Amaranthus retroflexus [3]): 80%
herbicidal activity against Alopecurus myosuroides (Alopecurus myosuroides; application rate 2 kg/ha): 98%

COC(=O)C1Cc2ccc3c(c2C1)B(O)OC3 (stereo not drawn) [Compound 14]
herbicidal activity against Abutilon theophrasti (Abutilon theophrasti [1]; application rate 0.25 kg/ha): 100%
herbicidal activity against Amaranthus retroflexus (Amaranthus retroflexus [2]; application rate 0.25 kg/ha): 100%
herbicidal activity against Sesbania exaltata (Sesbania exaltata): 100%

COC(=O)C1Cc2c(Cl)cc3c(c2O1)B(O)OC3 (single isomer, unassigned) [Compound 8]
herbicidal activity against Amaranthus retroflexus (Amaranthus retroflexus [2]; application rate 2 kg/ha): 100%
herbicidal activity against Setaria viridis (Setaria viridis; application rate 2 kg/ha): 100%
herbicidal activity against Setaria faberi (Setaria faberi): 80%
herbicidal activity against Echinocloa crus-galli (Echinocloa crus-galli): 100%

O=C(O)C1Oc2ccc3c(c2O1)B(O)OC3 (stereo not drawn) [Compound 2, 1-hydroxy-3H-[1,3]dioxolo[4,5-g][2,1]benzoxaborole-7-carboxylic acid]
herbicidal activity against Abutilon theophrasti (Abutilon theophrasti [1]; application rate 2 kg/ha): 90%
herbicidal activity against Amaranthus retroflexus (Amaranthus retroflexus [2]; application rate 2 kg/ha): 100%
herbicidal activity against Setaria viridis (Setaria viridis; application rate 2 kg/ha): 80%

COC(=O)C1Oc2ccc3c(c2O1)B(O)OC3 (stereo not drawn) [Compound 4]
herbicidal activity against Abutilon theophrasti (Abutilon theophrasti [1]; application rate 2 kg/ha): 100%
herbicidal activity against Amaranthus retroflexus (Amaranthus retroflexus [2]; application rate 2 kg/ha): 100%

COC(=O)C1Cc2c(F)cc3c(c2O1)B(O)OC3 (stereo not drawn) [Compound 12]
herbicidal activity against Amaranthus retroflexus (Amaranthus retroflexus [2]; application rate 0.25 kg/ha): 100%
herbicidal activity against Polygonum convolvulus (Polygonum convolvulus): 95%
herbicidal activity against Sesbania exaltata (Sesbania exaltata): 100%

COC(=O)C1Cc2ccc3c(c2O1)B(O)OC3 (stereo not drawn) [Compound 5]
herbicidal activity against Amaranthus retroflexus (Amaranthus retroflexus [2]; application rate 2 kg/ha): 100%
herbicidal activity against Setaria viridis (Setaria viridis; application rate 2 kg/ha): 100%
herbicidal activity against Abutilon theophrasti (Abutilon theophrasti [4]): 80%
herbicidal activity against Amaranthus retroflexus (Amaranthus retroflexus [3]): 95%
herbicidal activity against Setaria faberi (Setaria faberi): 85%
herbicidal activity against Echinocloa crus-galli (Echinocloa crus-galli): 100%

O=C(O)C1Cc2c(C(F)(F)F)cc3c(c2C1)B(O)OC3 (stereo not drawn) [Compound 22]
herbicidal activity against Abutilon theophrasti (Abutilon theophrasti [1]; application rate 1 kg/ha): 100%
herbicidal activity against Amaranthus retroflexus (Amaranthus retroflexus [2]; application rate 1 kg/ha): 100%
herbicidal activity against Alopecurus myosuroides (Alopecurus myosuroides; application rate 1 kg/ha): 95%

CCOC(=O)C1Oc2ccc3c(c2O1)B(O)OC3 (stereo not drawn) [Compound 3, ethyl 1-hydroxy-3H-[1,3]dioxolo[4,5-g][2,1]benzoxaborole-7-carboxylate]
herbicidal activity against Amaranthus retroflexus (Amaranthus retroflexus [2]; application rate 2 kg/ha): 100%
herbicidal activity against Setaria viridis (Setaria viridis; application rate 2 kg/ha): 100%

COC(=O)C1Cc2c(Cl)cc3c(c2O1)B(O)OC3 (single isomer, unassigned) [Compound 7]
herbicidal activity against Abutilon theophrasti (Abutilon theophrasti [1]; application rate 2 kg/ha): 100%
herbicidal activity against Amaranthus retroflexus (Amaranthus retroflexus [2]; application rate 2 kg/ha): 100%
herbicidal activity against Avena fatua (Avena fatua): 100%

CCOC(=O)C1COc2c(ccc3c2B(O)OC3)O1 (stereo not drawn) [Compound 16]
herbicidal activity against Amaranthus retroflexus (Amaranthus retroflexus [2]; application rate 2 kg/ha): 100%

COC(=O)C1Cc2c(c(Cl)cc3c2B(O)OC3C)O1 (stereo not drawn) [Compound 9, methyl-5-chloro-1-hydroxy-3-methyl-7,8-dihydro-3H-furo[2,3-g][2,1]benzoxaborole-7-carboxylate]
herbicidal activity against Abutilon theophrasti (Abutilon theophrasti [1]; application rate 2 kg/ha): 100%
herbicidal activity against Amaranthus retroflexus (Amaranthus retroflexus [2]; application rate 2 kg/ha): 100%
herbicidal activity against Avena fatua (Avena fatua): 98%

COC(=O)C1Cc2c(ccc3c2B(O)OC3)O1 (stereo not drawn) [Compound 17]
herbicidal activity against Amaranthus retroflexus (Amaranthus retroflexus [2]; application rate 2 kg/ha): 100%

CCOC(=O)C1COc2ccc3c(c2O1)B(O)OC3 (stereo not drawn) [Compound 15]
herbicidal activity against Abutilon theophrasti (Abutilon theophrasti [1]; application rate 2 kg/ha): 90%
herbicidal activity against Amaranthus retroflexus (Amaranthus retroflexus [2]; application rate 2 kg/ha): 90%
